The source of these data is patent US20260327255A1, “LIGAND-DIRECTED COVALENT MODIFICATION OF AMINO ACID SIDE CHAINS USING CYCLIC IMINE MANNICH ELECTROPHILES” (Purdue Research Foundation, priority 2022, published 2026).

Entries after “also recorded” stand apart in the source; their conditions may differ.

The nature of one data set: Aqueous solubility. The data set is classed as physicochemical.
A short description of data set [1]: Amino acid mimetic reactivity, LC/MS: indole (tryptophan mimic). The note with it: 100 mM, PBS pH 7, 37° C., 24 h. Here is the method:
(§1) Cyclic imine 1 was incubated with 100 mM compounds in PBS (pH 7) at 37° C. for 24 hours and then analyzed by LC/MS. (A) Compounds include β-mercaptoethanol, imidazole, isopropanol, n-butylamine, propionic acid, 3-methyl indole, and N-ethyl pyrrole (pyrrole-lysine). UV LC/MS traces for (B) β-mercaptoethanol, (C) 3-methyl indole, and (D) N-ethyl pyrrole. LR-ESI-MS: imine-thiol product m/z calc. for [M+H]^+ 231.1; found: 231.2. Imine-indole product m/z calc. for [M+H]^+: 284.2; found: 284.2. Imine-pyrrole product m/z calc. for |M+H|^+: 248.2; found: 248.2.
(§2) To assess the selectivity to other amino acids, we tested compounds mimicking amino acid side chain functional groups, including β-mercaptoethanol (cysteine), imidazole (histidine), isopropanol (serine/threonine), n-butylamine (lysine), propionic acid (aspartic acid/glutamic acid), 3-methyl indole (tryptophan), and N-ethyl pyrrole (pyrrole-lysine). […] Conjugation to thiols was expected based on previous reports (Minakawa et al. J. Org. Chem. 2008, 73(21), 8669-8672; Cavaca et al. Mol. 2022, 27(5), 1673).

A short description of data set [2]: Amino acid mimetic reactivity, LC/MS: thiol (cysteine mimic). Conditions: 100 mM, PBS pH 7, 37° C., 24 h. Here is the method: as §1, §2
A further data set has as its system angiotensin II. The data set is described as follows: Labeling of angiotensin II with imine 1 (LC/MS). Conditions: 50 mM imine 1, 10 mM angiotensin II, 16 hours. Here is the method:
UV trace of reaction mixture of compound 1 (cyclic imine 1) with angiotensin II. […] (Mono cyclic imine-angiotensin II conjugate peak at 2 min): calc. [M+H]^+: 1199.2, found [M+H]^+: 1199.3, [M+2H]^2+: 600.3, [M+3H]^3+: 400.6. (Di-cyclic imine-angiotensin II conjugate peak at 2.1 min): calc. [M+H]^+: 1351.2, found [M+H]^+: 1351.8, [M+2H]^2+: 676.4, [M+3H]^3+: 451.0. (Unmodified angiotensin II (8-mer) peak at 2.2 min): m/z calc. [M+H]^+: 1047.2, found [M+H]^+: 1047.2, [M+2H]^2+: 524., [M+3H]^3+: 350.
(§3) To confirm reactivity and selectivity with a peptide context, imine 1 (50 mM) was incubated with the tyrosine-containing 8-mer peptide angiotensin II ([…]) (10 mM) (FIG. 10). The combined yield of mono-labeled and di-labeled angiotensin II was ~45% as quantified by LC/MS. Cyclic imine 1 (50 mM) was also incubated with a small protein (recombinant CBX8 chromodomain (ChD), which contains multiple tyrosines and tryptophans; 10 μM in PBS buffer (pH=7; 0.02% Tween 20)) at room temperature overnight. With overnight incubation, two to three additions of the imine were observed by mass spectrometry.

Data set [3] can be described thus: Reaction of cyclic imines with N-acetyl-L-tyrosine methylamide (HPLC/LC-MS). The note with it: for reaction half-life (t1/2): 5 mM imine, 100 mM Ac-Tyr-NHMe; for reaction half-life (t1/2) / reactivity to tyrosine: PBS pH 7, 37° C.; for second-order rate constant: pseudo-first order conditions; for reactivity to tyrosine: in words, Ac-Tyr-NHMe. Here is the method:
The reaction was monitored using liquid chromatography/mass spectrometry (LC/MS).
(§4) Reactions were conducted under pseudo first order conditions with an excess of one reactant. The reduction in the concentration of the limiting reactant A was measured at various time points by HPLC analysis. Rates of imine 1 with N-Ac-Tyr-NMe, indole-3-butyric acid, and 1H-pyrrole-1-propionic acid and of imine 2 with N-Ac-Tyr-NMe were measured.
(§5) Reaction of imine 1 (5 mM) with (A) N-Ac-Tyr-NHMe (100 mM) or (B) indole-3-butyrate (100 mM) at indicated time points.
(§6) Reaction of (A) imine 1 (5 mM) with N-Ac-Tyr-NHMe (100 mM) at 37° C. or (B) at room temperature. (C) imine 2 (5 mM) with N-Ac-Tyr-NHMe (100 mM) at 37° C. (D) imine 1 (5 mM) with indole-3-butyrate (100 mM) (E) imine 1 (10 mM) with 1 mM 1H-pyrrole-1-propionate (F) iminium 6 (5 mM) with N-Ac-Tyr-NHMe (100 mM) at 37° C. at pH 7 (G) iminium 6 (5 mM) with N-Ac-Tyr-NHMe (100 mM) at 37° C. at pH 3 at indicated time points.
Several cyclic imines (5 mM) were incubated with a simple tyrosine analog N-acetyl-L-tyrosine methylamide (Ac-Tyr-NHMe) in PBS pH 7 at 37° C. (FIGS. 2-3). The reactivity was quantitated by UV integration on HPLC with liquid chromatography/mass spectrometry (LC/MS) confirmation of reaction product identity (FIG. 4). Under these pseudo-first order reaction conditions, reaction half-lives and second-order rate constants were determined.

Data set [4] can be described thus: Effect of thiols on tyrosine labeling with imine 1. The note with it: 5 mM imine, 100 mM Tyr, 5 mM cysteine, vs control. Here is the method:
Cyclic imine 1 (5 mM) was incubated with 100 mM acetyl tyrosine methyl amide and 5 mM […] (in the presence of 5 mM TCEP). Reaction yield was quantified based on UV integrations of Mannich product at 4 h, 9 h, 17 h, 24 h, and 32 h. Imine consumption rate was quantified based on the UV integration of Mannich product at 4 h, 9 h, 17 h, 24 h, and 32 h.
Thiol addition to the imine is reversible, yet this reaction may limit the desired reactivity of imines to tyrosines in cellular contexts where glutathione concentrations can be 1-10 mM (Meister et al. J. Biol. Chem. 1988, 263(33), 17205-17208; Forman et al. Mol. Aspects Med. 2009, 30(1-2), 1). To evaluate this reversibility, the pre-formed thioaminal product of 1 with N-acetyl-cysteine methyl amide was treated with either glutathione (1 M) or Ac-Tyr-NHMe (100 mM). […] To evaluate potential effects of cellular thiols on tyrosine labeling rate, the cyclic imine-Tyr reaction (at 5 mM and 100 mM, respectively) was evaluated over time in the presence of cysteine (5 mM) (FIG. 9).

Data set [5] concerns the target T1, recombinant CBX8 chromodomain (ChD) (Homo sapiens, UniProt Q9HC52).
T1 construct: expected mass of CBX8 ChD 8792 Da
T1 sequence (Q9HC52 8-69 limits assumed): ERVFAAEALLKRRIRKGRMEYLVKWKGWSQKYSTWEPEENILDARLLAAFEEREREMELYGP
In words: Labeling of CBX8 chromodomain with imine 1 (mass spectrometry). In kind it is binding. The note with it: 50 mM imine, 10 μM CBX8 ChD, PBS pH 7, 0.02% Tween 20, room temperature overnight. Here is the method:
as §3

The nature of data set [6]: Stability of cyclic imines in aqueous media (LC/MS). The note with it: 96-hours incubation in PBS, 0.1M HCl, 0.1M NaOH. The data set is classed as physicochemical. Here is the method:
To validate the stability of cyclic imines as covalent warheads, imines 1-4 were evaluated by LC/MS after 96-hours incubation in PBS, 0.1M HCl, and 0.1M NaOH (Table 1).

A short description of data set [7]: Reaction of imine 1 with 1H-pyrrole-1-propionate (pyrrole-Lys mimic). Here is the method:
as §4, §6
We also tested 1 with N-ethyl pyrrole as a mimic of pyrrolated lysine, a lesser-known post-translational modification (Miyashita et al. Sci. Rep. 2014, 4, 5343; Chikazawa et al. J. Biol. Chem. 2020, 295(22), 7697-7709). […] Previous work with N-pyrrolyl alanine derivatives has shown fast and selective Pictet-Spengler reactions with aldehyde-containing biomolecules (Pomplun et al. Angew. Chemie Int. Ed. 2019, 58(11), 3542-3547).^50 Under conditions of 10 mM cyclic imine 1 with 1 mM 1H-pyrrole-1-propionate (as a soluble pyrrole-Lys mimic), we determined a second order rate constant of 5.9×10^−2 M^−1 s^−1 (FIGS. 3 and 5).

Data set [8] is described as follows: Reaction of imine 1 with indole-3-butyrate (tryptophan mimic). Here is the method: as §4, §5, §6
The nature of data set [9]: Amino acid mimetic reactivity, LC/MS: pyrrole (pyrrole-lysine mimic). Conditions: 100 mM, PBS pH 7, 37° C., 24 h. Here is the method:
as §1, §2

Data set [10] can be described thus: Hydrolysis of aromatic ester imine in water / PBS. The data set is classed as physicochemical.

`Cc1c[nH]c2ccccc12` [3-methyl indole]: the aqueous solubility entry in the data set “Aqueous solubility” is “poor aqueous solubility”.

Take `O=C1C=NC2CCCCC2N1` (stereo not shown) [Compound 1]: the “conjugate formation with 3-methyl indole” value in data set [1] is recorded as “Stable conjugates; also recorded: multiple products”. The “conjugate formation with β-mercaptoethanol” value in data set [2] was “Stable conjugates”. The “combined yield of mono-labeled and di-labeled angiotensin II” value with angiotensin II is ~ 45%. Moreover, the “reaction half-life (t1/2)” value in data set [3] stood at 8 ± 0.3 h. In addition, the second-order rate constant in data set [3] (37° C.) was 0.00024 M⁻¹ s⁻¹; in data set [3] (R.T.), 0.00015 M⁻¹ s⁻¹. Besides, the “effect of cysteine on tyrosine-imine reaction rate” value in data set [4] was “slightly slowed the reaction rate”. The “number of additions of the imine” value in [5] is “two to three”. In addition, in data set [6], the “stability (in words)” value was “stable under all conditions”. Also, in data set [7] (10 mM imine 1, 1 mM 1H-pyrrole-1-propionate), the “second order rate constant” value is 0.059 M⁻¹ s⁻¹. Further, the “increase in rate constant relative to Tyr” value in [7] (1H-pyrrole-1-propionate vs Tyr) is ~ 200 fold. Moreover, in [8] (indole-3-butyrate vs tyrosine), the “fold lower rate constant than to tyrosine” value worked out at 2 fold. In data set [8] (indole-3-butyrate, 37° C.), the “second order rate constant (k2)” value was determined as 0.00011 M⁻¹ s⁻¹. In [9], the “conjugate formation with N-ethyl pyrrole” value is listed as “Stable conjugates”.

For `O=C1C=NC2CCCCC2O1` (stereo not shown) [Compound 2], in data set [3], the “reaction half-life (t1/2)” value came to 0.667 h. The same compound had a second-order rate constant in data set [3] (37° C.) of 0.0029 M⁻¹ s⁻¹. For the same compound, the “increase in rate constant relative to 1” value in data set [3] (relative to imine 1, Ac-Tyr-NHMe) is listed as ~ 10 fold. In addition, the “stability (in words)” value in data set [6] is reported as “hydrolyzed under basic conditions”.

Consider `O=c1cnc2ccccc2o1` [Compound 3], for which the degraded at 1 h in data set [10] (PBS, pH 7, within an hour) amounted to 70%. Also, the stability in water entry in data set [10] (water) was “stable in water”. For the same compound, in data set [3], the reactivity to tyrosine result was “did increase the rate of Mannich addition; also recorded: low intrinsic reactivity”. The “stability (in words)” value in data set [6] was “hydrolyzed under basic conditions; also recorded: unstable in PBS”.

On to `Oc1cnc2ccccc2n1` [Compound 4], for which the reactivity to tyrosine result in [3] is “unreactive”. In data set [6], the “stability (in words)” value is recorded as “stable under all conditions”.

`C#CCn1c(=O)cnc2ccccc21` [Compound 5]: in [3], the reactivity to tyrosine entry is on record as “unreactive”.

`C1=NCCc2ccccc21` [Compound 9]: in data set [3], the reactivity to tyrosine result is given as “limited”.

For `CC1=NCCC1` [Compound 10], the reactivity to tyrosine entry in data set [3] is “no”.
